The test system of data set [1] is NNK-induced DNA damage in liver tissues. The data set is described as follows: NNK-induced DNA damage in A/J mouse liver tissues. The note with it: diet Day 1-Day 7, 24 h after NNK; data not shown. It is filed as in vivo, A/J mice. As to the method:
DNA was isolated and purified from ˜100 mg lung and liver tissues of each mouse, following Genomic-tip 100/G protocol from Qiagen Corp (Valencia, Calif.).
(§1) After one-week acclimation, A/J mice were weighed and randomized into ten groups (3 mice per group except for Group 1 that had one mouse as the negative control) and switched to the AIN-93 G diet on a date defined as Day 1. Mice in Groups 1 and 2 were given the AIN-93 G diet during Day 1-Day 7. Mice in Groups 3-10 were given the AIN-93 G diets supplemented with kava, (+)-DHK, (+)-DHM, and synthetic (±)-DHM respectively at the specified dose during Day 1-Day 7. Mice in Groups 2-10 were given a single dose of NNK at 100 mg/kg bodyweight in saline (0.1 ml) via i.p. injection at the beginning of Day 7 while the mouse in Group 1 was given saline (0.1 ml). Mice were euthanized by CO2 overdosing 24 h after NNK treatment, and lung and liver tissues were collected and stored at −80° C. until DNA isolation. A set of NNK-induced DNA adducts (O^6-mG, 7-mG, 7-pobG, O^6-pobdG, O^2-pobdT, 7-phbG, O^6-phbdG and O^2-phbdT) were quantified by following reported procedures (Leitzman, P et al. (2014) Cancer. Prev. Res., 7: 86-96; Peterson, L A et al. (2013) Chem. Res. Toxicol. 26: 1464-1473; Upadhyaya, P et al. (2008) Chem. Res. Toxicol. 21: 1468-1476). For 7-mG isolation, DNA (30 μg) was dissolved in 10 mM sodium phosphate buffer, pH 7 (500 μL) and spiked with [^13C1^2H3]7-mG (10 pmol). Samples were heated to 80° C. for 30 minutes. An aliquot (100 μL) was removed for 7-mG analysis.

The test system of data set [2] is NNK-induced lung tumorigenesis. Nature of the data set: NNK-induced lung adenoma formation in A/J mice. The note with it: Example 4, Day 119. In kind it is in vivo. As to the method: Female A/J mice, 5-6 weeks of age from the Jackson Laboratory (Bar Harbor, Me.), were handled according to animal welfare protocols approved by IACUC at the University of Minnesota. […] After one-week acclimation, mice were weighed, randomized into different groups and switched to AIN-93G-powdered diet, defined as Day 1. The number of mice in each group was specified in the Result Section. On Day 7 and Day 14, mice in the negative control groups received 0.1 mL physiological saline solution while mice in the other groups received NNK (100 and 67 mg/kg respectively in 0.1 mL of physiological saline solution) via i.p. injection. At the end of Day 21, mice were switched to AIN-93M-powdered diet until the end of the study. Diet consumption was measured twice weekly and bodyweight was monitored weekly. All mice were euthanized with an overdose of carbon dioxide. The lungs were collected and tumors on the surface of the lung were counted.
Data on lung adenoma multiplicity were reported as mean±SD (n=5-40). […] For Experiment 2, unpaired t-test was used for comparison between NNK control and kava treatment groups. Two-sided p-value≤0.05 was considered statistically significant. Data on DNA adducts were reported as mean±SD (n=3). For the time-course study, unpaired […] was used for comparisons between NNK control and kava treatment groups. Two-sided p-value≤0.05 was considered statistically significant: *p<0.05, **p<0.01, and ***p<0.001. For the 24-h time point study, one-way ANOVA was used to compare means.
After one-week acclimation, mice were weighed, randomized into eight groups and switched to the AIN-93 G diet on a date defined as Day 1. The number of mice in each group is specified in the Results Section (FIG. 36). Mice were fed diets supplemented with different compounds at the dose specified in the Results Section during Day 1-Day 14. On Day 7 and Day 14, mice in the negative control group received 0.1 mL of saline solution while mice in the other groups received NNK (100 and 67 mg/kg, respectively, in 0.1 mL of saline solution) via i.p. injection. At the end of Day 21, mice were switched to the AIN-93 M diet until the end of the study. The diet was replenished twice weekly. The diet consumption was measured twice weekly and the bodyweight was monitored weekly. This study was terminated at the end of Day 119. All mice were euthanized with CO2 overdosing.

Data set [3] has as its system NNK-induced DNA adducts in lung tissues. The data set is described as follows: NNK-induced DNA adducts in A/J mouse lung tissues (LC-ESI-MS/MS). The following applies: 24 h after NNK. In kind it is in vivo, A/J mice.
From the text: DNA was isolated from the whole lung tissue of each individual mouse following Puregene DNA isolation protocol (Qiagen Corp, Valencia, Calif.) (Urban et al., Chem Res Toxicol 2012; 25:2167-78). 7-pobG, O^2-pobdT, O^6-pobdG, and O^6-mG were quantified by LC-ESI-MS/MS, following established protocols (Urban et al., Chem Res Toxicol 2012; 25:2167-78; Peterson et al., Cancer Res 1991; 51:5557-64).
After one-week acclimation, A/J mice were weighed and randomized into seven groups (3 mice per group) and switched to the AIN-93 G diet on a date defined as Day 1. Mice in Groups 1 and 2 were given the AIN-93 G diet during Day 1-Day 7. Mice in Groups 3-7 were given the AIN-93 G diet supplemented with desmethoxyyangonin, (+)-DHK, (+)-kavain, (+)-DHM, or (+)-methysticin respectively, at a dose of 1 mg/g of diet during Day 1-Day 7. Mice in Groups 2-7 were given a single dose of NNK at 100 mg/kg bodyweight in saline (0.1 ml) via intraperitoneal (i.p.) injection at the beginning of Day 7 while mice in Group 1 were given saline (0.1 ml). Mice were euthanized by CO2 overdosing 24 h after NNK treatment, and lung tissues were collected and stored at −80° C. until DNA isolation. A number of NNK-induced DNA modifications (O^6-mG, 7-pobG, O^6-pobdG and O^2-pobdT) were quantified by following a reported procedure (Leitzman, P et al. (2014) Cancer. Prev. Res., 7: 86-96).
as §1

Data set [4] concerns APAP-induced hepatotoxicity. The data set is described as follows: Short-term combination study: potentiation of APAP-induced hepatotoxicity in C57BL/6 mice.
From the text: Six week-old female C57BL/6J mice (Jackson Laboratories, ME) were housed at specific pathogen-free animal facilities of Research Animal Resources, University of Minnesota with free access to standard rodent food and water. All mice were acclimatized for one week before being used for experiments. Mice were gavaged with dose formulations at the indicated doses and times, euthanized by CO2 overdosing with necropsy performed by experienced researchers.
The short-term combination studies were designed to evaluate the potential synergism of kava and its chemicals to APAP induced hepatotoxicity. C57BL/6 mice were randomized (8-15 mice per group) and were administered with PEG-400 (200 μL), kava (500 mg/kg bodyweight), DHM or FKA and FKB in PEG-400 (200 μL) at the indicated doses daily via oral gavage for two days. On the third day, mice in the respective groups were co-administered with APAP (800 mg/kg bodyweight) in PEG-400 (200 μL). Bodyweight was recorded daily. Necropsies were performed 24 hours after the last gavage by experienced researchers. Serum from each mouse was analyzed for ALT and AST. Livers were collected and preserved in 10% neutral buffered formalin. Appropriately fixed tissues were processed into paraffin blocks using standard histological techniques, and 5 μm sections were cut and stained with hematoxylin and eosin (H&E).
The clinical chemistry data were reported as mean±SD (n=4-15). […] One-way analysis of variance (ANOVA) was used to compare the means among different groups in the short-term combination studies. Dunnett's test was used for comparisons of APAP and other treatment groups when the one-way ANOVA analysis was statistically significant. p-value≤0.05 was considered statistically significant. All analyses were conducted in GraphPad Prism 4 (GraphPad Software, Inc. La Jolla, Calif.).

Consider 4 molecules from US10918687B2, “Kava derived therapeutic compounds and methods of use thereof” (KUALITY HERBCEUTICS LLC, priority 2013, dated 2021).

With `COC1=CC(=O)O[C@@H](CCc2ccc3c(c2)OCO3)C1` (racemic) [(±)-DHM, (±)-dihydromethysticin], the “effect on NNK-induced DNA damage in the liver tissues” value in data set [1] was “none of the treatments had significant effects”. In addition, the “lung adenoma formation (incidence and multiplicity)” value in data set [2] (0.5 mg/g of diet Day 1-Day 14) was “adenoma free”.

As to `COC1=CC(=O)O[C@@H](CCc2ccccc2)C1` [(+)-DHK, (+)-dihydrokavain], the “effect on O^6-mG and POB adducts” value in data set [3] (1 mg/g of diet) is “did not reduce any of these adducts”. The “effect on NNK-induced DNA damage in the liver tissues” value in data set [1] is reported as “none of the treatments had significant effects”. In addition, the “lung adenoma formation (incidence and multiplicity)” value in data set [2] (0.05 mg/g of diet Day 1-Day 14) and in data set [2] (0.5 mg/g of diet Day 1-Day 14) was “no reduction at all” each time.

For the molecule `COC1=CC(=O)O[C@@H](/C=C/c2ccc3c(c2)OCO3)C1` [(+)-methysticin], the “effect on NNK-induced O^6-mG” value in data set [3] (isolated kavalactones 1 mg/g of diet Day 1-Day 7) was “significantly reduced”.

`CC(=O)Nc1ccc(O)cc1` [APAP, acetaminophen, reference compound]: the “serum ALT and AST activities” value in data set [4] (APAP alone 800 mg/kg bodyweight via gavage) was “significantly increased”. Also, the liver lesions entry in data set [4] (APAP alone 800 mg/kg, lesions graded 0 to 4) was “evenly distributed among different severity categories”.
